System: primary rat microglia
Assay: Inhibition of microglia activation (Aβ peptide stimulation, MTS reduction)
Assay type: cell-based
Settings: Aβ-activated primary rat microglia, MTS reduction on day 7, compound added on day 5; read-out: IC50 in the Microglia Inhibition Test
Procedure: For in vitro production of Aβ-activated microglia, primary rat microglia are incubated with synthetic Aβ peptide:
To simulate Aβ deposits, synthetic Aβ peptide is dried on 96-hole tissue culture plates. A peptide stock solution of 2 mg/ml of H2O 1:50 in H2O, is diluted in this. To coat the 96-hole plates, 30 μL of this dilute peptide solution/hole is used and dried overnight at room temperature.
Primary rat microglia are harvested from mixed glia cultures, which were obtained from P3 rat brains. For the production of mixed glia cultures, the brains are removed from 3-day-old rats and meninges are removed therefrom. The isolation of cells is achieved by trypsinization (0.25% trypsin solution, 15 minutes 37° C.)). After undigested tissue fragments are separated with the aid of a 40 µm nylon mesh, the isolated cells are centrifuged off (800 rpm/10 minutes). The cell pellet is resuspended in culture medium and moved into 100 ml tissue culture flasks (1 brain/tissue culture flask). […]
To quantify the microglia reactivity, the metabolic activity is measured on cultivation day 7 via the reduction of MTS (3-(4,5-dimethylthiazol-2-yl)-5-(3carboxymethoxyphenyl)-2-(sulfophenyl)-2H-tetrazolium), Owen's reagent, Baltrop, J. A. et al., Bioorg. & Med. Chem. Lett., 1, 6111 (1991)). […]

SMILES | IC50
COCCCn1c(-c2ccccc2)nc2ccc(OCCCCCC(=O)OC)cc21 [6-[(5-(Methoxycarbonyl)pentyl)oxy]-1-(3-methoxy-n-propyl)-2-phenyl-benzimidazole] | 650 nM
COC(=O)CCCCCOc1ccc2nc(-c3ccc(OC)cc3)n(CCCN(C)C(C)=O)c2c1 [6-[(5-(Methoxycarbonyl)pentyl)oxy]-2-(4-methoxy-phenyl)-1-[3-(N-methyl-N-(methylcarbonyl)amino)propyl]-benzimidazole] | 390 nM

Reference: patent US6855714B2, “1-alkyl-2-aryl-benzimidazole derivatives, their use for the production of pharmaceutical agents as well as pharmaceutical preparations that contain these derivatives” (Schering Aktiengesellschaft, priority 2001, dated 2005)
